Laboratory results: the supplement of paper PMC10307832

Columns and labels:
Assay in all cases: relative viability (nuclei count vs DMSO), 5 days (fraction); higher = more cells survive
[1] = compound: C[C@]12O[C@H](C[C@]1(O)CO)n1c3ccccc3c3c4c(c5c6ccccc6n2c5c31)CNC4=O [Lestaurtinib] + COc1cccc2cc(-c3nc([C@H]4CC[C@H](C(=O)O)CC4)n4ncnc(N)c34)[nH]c12 [OSI-027] (partner 0.5 µM)
In short: (§1)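 Relative viability was taken as the ratio of nuclei in treated wells to nuclei in vehicle wells. Lung cancer cell lines in 1536-well plates received compounds by pin tool one day after seeding, either one drug alone or a fixed anchor-drug dose plus five library-drug doses (not always all listed) in √10 steps. Nuclei were counted on 4× images after 5 days of treatment, and values are medians of duplicate plates.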

[2] = compound: C1/C(=C\C2=CC=CS2)/C(=O)/C(=C/C3=CC=CS3)/C1 + Nc1nc2[nH]cc(CCc3ccc(C(=O)N[C@@H](CCC(=O)O)C(=O)O)cc3)c2c(=O)[nH]1 [Pemetrexed] (partner 0.2 µM)
In short: as §1

[3] = compound: C1/C(=C\C2=CC=CS2)/C(=O)/C(=C/C3=CC=CS3)/C1 + CCNC(=O)c1noc(-c2cc(C(C)C)c(O)cc2O)c1-c1ccc(CN2CCOCC2)cc1 [Luminespib] (partner 0.01 µM)
In short: as §1

[4] = compound: C1=CC(=CC=C1C2=CC(=C(S2)NC(=O)N)C(=O)N)F [TPCA-1] + COc1cc2c(Oc3ccc(NC(=O)C4(C(=O)Nc5ccc(F)cc5)CC4)cc3F)ccnc2cc1OCCCN1CCOCC1 [Foretinib] (partner 0.25 µM)
In short: as §1

Row | Cell Line | relative viability ([1]; first compound 0.005 µM) | relative viability ([1]; first compound 0.01581 µM) | relative viability ([1]; first compound 0.05 µM) | relative viability ([1]; first compound 0.1581 µM) | relative viability ([1]; first compound 0.5 µM) | relative viability ([2]; first compound 0.2 µM) | relative viability ([2]; first compound 0.6325 µM) | relative viability ([2]; first compound 2 µM) | relative viability ([2]; first compound 6.325 µM) | relative viability ([2]; first compound 20 µM) | relative viability ([3]; first compound 0.2 µM) | relative viability ([3]; first compound 0.6325 µM) | relative viability ([3]; first compound 2 µM) | relative viability ([3]; first compound 6.325 µM) | relative viability ([3]; first compound 20 µM) | relative viability ([4]; first compound 0.04 µM) | relative viability ([4]; first compound 0.1265 µM) | relative viability ([4]; first compound 0.4 µM) | relative viability ([4]; first compound 1.265 µM) | relative viability ([4]; first compound 4 µM)
1 | NCI-H2170 | 0.726 | 0.523 | 0.45 | 0.561 | 0.471 | 0.283 | 0.246 | 0.259 | 0.245 | 0.256 | 0.98 | 0.582 | 0.788 | 0.632 | 0.719 | 1.08 | 0.985 | 0.998 | 0.986 | 0.682
2 | HCC-366 | 1.03 | 1.03 | 0.827 | 0.353 | 0.198 | 0.168 | 0.169 | 0.156 | 0.116 | 0.172 | – | – | – | – | – | 0.921 | 0.86 | 0.922 | 0.851 | 0.654
3 | NCI-H2347 | 0.402 | 0.423 | 0.409 | 0.33 | 0.367 | 0.44 | 0.429 | 0.478 | 0.448 | 0.426 | 0.405 | 0.959 | 0.381 | – | 0.466 | 1.03 | – | 1.16 | 0.551 | 0.782
4 | COR-L 105 | 0.616 | 0.696 | 0.565 | 0.441 | 0.23 | 1.37 | 1.04 | 1.26 | 1.06 | 1.13 | 0.97 | 0.502 | 0.808 | – | 0.586 | 1.01 | 1.1 | 1.23 | 1.2 | 0.983
5 | 201T | 0.766 | 0.982 | – | 0.63 | 0.447 | 0.351 | 0.367 | 0.333 | 0.313 | 0.33 | 1.14 | 1.05 | 1.04 | 1.03 | 1.01 | 1.12 | 1.04 | 1.07 | 1.09 | 0.9
6 | NCI-H2126 | 0.6 | 0.844 | 0.665 | 0.658 | 0.539 | 0.677 | 0.681 | 0.789 | 0.58 | 0.714 | 0.952 | 0.84 | 0.963 | 0.804 | 0.867 | 1.25 | 0.721 | 1.16 | 1.06 | 1
7 | LC-2-ad | 0.892 | 0.783 | 0.506 | 0.483 | 0.304 | 0.272 | 0.298 | 0.268 | 0.25 | 0.287 | 1.2 | 1.14 | 1.12 | 1.04 | 0.961 | 1.06 | 0.88 | 0.818 | 0.845 | 0.552
8 | NCI-H1623 | 0.4 | 0.412 | 0.428 | 0.399 | 0.398 | – | – | – | – | – | 0.672 | 0.601 | 0.528 | 0.372 | 0.511 | 0.824 | 0.757 | 0.937 | 0.973 | 0.644
9 | ABC-1 | 0.505 | 0.65 | 0.342 | 0.456 | 0.175 | – | – | – | – | – | 0.33 | 0.853 | 1.04 | 0.428 | 0.521 | 1.28 | 1.11 | 1.27 | 0.964 | 0.778
10 | IA-LM | – | – | – | – | – | – | – | – | – | – | – | – | – | – | – | 1.14 | 1.02 | 1.09 | 1.01 | 0.885
11 | NCI-H1792 | 0.95 | 0.698 | 0.83 | 0.776 | 0.424 | 0.931 | 0.875 | 0.882 | 0.74 | 0.767 | 0.509 | 0.285 | 0.468 | 0.583 | 0.388 | – | – | – | – | –
12 | NCI-H1299 | – | – | – | – | – | – | – | – | – | – | – | – | – | – | – | 1.07 | 1.07 | 1.03 | 1.09 | 1.07
13 | NCI-H727 | 0.614 | 0.675 | 0.525 | 0.698 | 0.498 | – | – | – | – | – | 0.428 | 0.336 | 0.433 | 0.477 | 0.308 | 1.01 | 0.922 | 0.738 | 0.788 | 0.829
14 | Calu-6 | – | – | – | – | – | – | – | – | – | – | – | – | – | – | – | 0.946 | 0.877 | 0.862 | 0.853 | 0.659
15 | NCI-H1703 | – | – | – | – | – | – | – | – | – | – | – | – | – | – | – | 0.308 | 0.33 | 0.315 | – | 0.302
16 | EBC-1 | – | – | – | – | – | – | – | – | – | – | – | – | – | – | – | 0.0976 | 0.0894 | 0.103 | 0.125 | 0.13
17 | HCC-44 | 0.548 | 0.654 | 0.462 | 0.659 | 0.705 | 0.64 | 0.688 | 0.613 | 0.55 | 0.673 | 1.09 | 1.19 | 1.08 | 0.942 | 0.965 | – | – | – | – | –
18 | NCI-H1648 | 0.233 | 0.271 | 0.285 | 0.246 | 0.261 | 0.859 | 0.718 | 0.79 | 0.609 | 0.569 | – | – | – | – | – | – | – | – | – | –
19 | NCI-H522 | 0.816 | 0.791 | 0.679 | 0.709 | 0.572 | 1.04 | 0.916 | 1.17 | 0.988 | 0.957 | 1.13 | 0.991 | 1.32 | 1.12 | 1.07 | – | – | – | – | –
20 | A549 | – | – | – | – | – | – | – | – | – | – | – | – | – | – | – | 0.989 | 1.03 | 0.947 | 0.826 | 0.764
21 | HCC-78 | 0.34 | 0.417 | 0.323 | 0.381 | 0.29 | 0.923 | 0.817 | 0.862 | 0.921 | 0.862 | – | – | – | – | – | 0.611 | 0.52 | 0.608 | 0.65 | 0.541
